Results on one molecule are retold here after article PMC4222822, “Discovery and Characterization of a Potent and Selective Inhibitor of Aedes aegypti Inward Rectifier Potassium Channels” (PLoS ONE, 2014).

For experiment [1], the system named is adult female mosquitoes (A. aegypti). Put plainly: Mosquito toxicology experiments (hemolymph injection). Format: in vivo, Aedes aegypti. On the procedure: The Aedes aegypti mosquito colony used in the present study is identical to that described previously. As before, only adult female mosquitoes 3–10 days post emergence were utilized for experiments.
Adult female mosquitoes for injection were anesthetized on ice and impaled through the metapleuron using a pulled-glass capillary attached to a nanoliter injector (Nanoject II, Drummond Scientific Company, Broomall, PA). Each mosquito received a single hemolymph injection of 69 nL of solution. The injection solution consisted of a potassium-rich phosphate buffered saline (K^+-PBS), 15% DMSO, 1% β-cyclodextrin, 0.1% Solutol, and a concentration of VU625 to deliver the doses indicated. In experiments where probenecid was used, water-soluble probenecid (Biotium, Hayward CA) was included in the injection solution at 50 mM, thereby providing a dose of 3.4 nmol per mosquito.
The K^+-PBS solution consisted of the following in mM: 92.2 NaCl, 47.5 KCl, 10 Na2HPO4, and 2 KH2PO4 (pH 7.5). A total of 10 mosquitoes were injected for a given treatment or dose, and then were placed into small cages within a rearing chamber (28°C, 80% relative humidity, 12∶12 light:dark) and allowed free access to a solution of 10% sucrose. […] For each treatment, 3–7 replicates of 10 mosquitoes each were performed.
Prism (GraphPad Software) was used to generate a dose-response curve for the toxicity of VU625; the doses (x-axis) were first log transformed and then the mortality data was normalized using Prism, where the smallest value and largest values in a data set equal ‘0%’ and ‘100%’, respectively. The data were then fitted using a ‘biphasic’ algorithm (<100 constraint) to calculate potencies (ED25 and ED75 values). To compare 1) the toxic effects among the vehicle, probenecid, VU625, and VU625 + probenecid treatments, and 2) the excretory capacity among the vehicle, probenecid, VU625, and VU625 + probenecid treatments, one-way ANOVAs were performed with Newman-Keuls posttests.

Experiment [2] addresses T1, Kir6.2/SUR1 (Homo sapiens, UniProt Q14654).
T1 construct: expressed in transfected cells
Nature of the experiment: Tl+ flux selectivity assay, Kir6.2/SUR1. Format: cell-based. The settings on record: Kir6.2/SUR1, diazoxide 250 µM; n = 2 independent experiments in triplicate; read-out: Inhibition of Tl+ flux (IC50). On the procedure: [Worded in the source for another target; used here, by the source, with some conditions changed.] (§1) Tl^+ flux assays were performed essentially as described previously, [18], [19]. Briefly, stably transfected T-Rex-HEK-293 cells expressing AeKir1 channels were cultured overnight in 384-well plates (20,000 cells/20 µL/well black-walled, clear-bottomed BD PureCoat amine-coated plates (BD, Bedford, MA) with a plating media containing DMEM, 10% dialyzed FBS and 1 µg/mL tetracycline. The next day, the cell culture medium was replaced with a dye-loading solution containing assay buffer (Hanks Balanced Salt Solution with 20 mM HEPES, pH 7.3), 0.01% (w/v) Pluronic F-127 (Life Technologies, Carlsbad, CA), and 1.2 µM of the thallium-sensitive dye Thallos-AM (TEFlabs, Austin, TX). Following 1 hr incubation at room temperature, the dye-loading solution was washed from the plates and replaced with 20 µL/well of assay buffer. […] Tl^+ flux data were analyzed as previously described, [21], [22] using a combination of Excel (Microsoft Corp, Redmond, WA) with XLfit add-in (IDBS, Guildford, Surrey, UK) and OriginPro (OriginLab, Northampton, MA) software. […] The slope of the fluorescence increase beginning 5 s after Tl^+ addition and ending 15 s after Tl^+ addition was calculated.

Experiment [3] concerns the target melatonin MT1 receptor (Homo sapiens, UniProt P48039). Put plainly: Radioligand displacement assay, melatonin MT1 receptor. Format: binding, mammalian. The settings on record: 10 µM VU625.
The test system of experiment [4] is 68 mammalian GPCR's, ion channels, and transporters. Put plainly: Radioligand displacement assays, panel of 68 targets. The conditions noted are these: 10 µM, active defined as >50% ligand displacement. Format: binding.
Experiment [5] has as its target T2, Kir2.1 (Homo sapiens, UniProt P63252).
T2 construct: expressed in transfected cells
T2 sequence (P63252 1-427): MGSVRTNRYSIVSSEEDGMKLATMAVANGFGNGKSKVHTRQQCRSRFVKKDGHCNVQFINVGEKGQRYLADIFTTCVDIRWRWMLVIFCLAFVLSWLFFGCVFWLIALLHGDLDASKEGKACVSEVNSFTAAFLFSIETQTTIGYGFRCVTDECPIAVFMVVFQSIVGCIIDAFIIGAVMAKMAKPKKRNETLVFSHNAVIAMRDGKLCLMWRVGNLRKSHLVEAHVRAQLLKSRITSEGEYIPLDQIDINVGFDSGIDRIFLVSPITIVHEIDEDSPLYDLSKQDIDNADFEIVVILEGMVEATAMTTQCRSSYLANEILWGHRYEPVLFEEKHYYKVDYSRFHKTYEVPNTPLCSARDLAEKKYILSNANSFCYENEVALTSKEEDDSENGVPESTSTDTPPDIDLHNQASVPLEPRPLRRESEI
Nature of the experiment: Tl+ flux selectivity assay, Kir2.1. The settings on record: n = 2 independent experiments in triplicate, read-out: Inhibition of Tl+ flux (IC50). Format: cell-based. On the procedure:
[Worded in the source for another target; used here, by the source, with some conditions changed.] as §1

The test system of experiment [6] is mosquitoes. Nature of the experiment: Toxicity when applied to the cuticle (topical). It counts as in vivo. The settings on record: Piermarini, unpublished observations.
Where [7] appears, read: co-injected with probenecid 3.4 nmol per mosquito, mortality at 24 h post-injection, biphasic fit.

Structures are written as SMILES.

Sequence of melatonin MT1 receptor (P48039 whole entry): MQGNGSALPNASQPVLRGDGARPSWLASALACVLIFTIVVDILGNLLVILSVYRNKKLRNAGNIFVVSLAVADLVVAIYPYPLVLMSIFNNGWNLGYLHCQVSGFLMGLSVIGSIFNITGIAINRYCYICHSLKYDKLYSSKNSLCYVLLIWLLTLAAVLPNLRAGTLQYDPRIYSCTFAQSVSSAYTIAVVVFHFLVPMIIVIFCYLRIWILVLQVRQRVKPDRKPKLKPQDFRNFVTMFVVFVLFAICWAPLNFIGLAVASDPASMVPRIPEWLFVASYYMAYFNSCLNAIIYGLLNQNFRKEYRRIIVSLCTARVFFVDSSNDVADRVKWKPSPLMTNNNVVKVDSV
T1 sequence (Q14654 whole entry): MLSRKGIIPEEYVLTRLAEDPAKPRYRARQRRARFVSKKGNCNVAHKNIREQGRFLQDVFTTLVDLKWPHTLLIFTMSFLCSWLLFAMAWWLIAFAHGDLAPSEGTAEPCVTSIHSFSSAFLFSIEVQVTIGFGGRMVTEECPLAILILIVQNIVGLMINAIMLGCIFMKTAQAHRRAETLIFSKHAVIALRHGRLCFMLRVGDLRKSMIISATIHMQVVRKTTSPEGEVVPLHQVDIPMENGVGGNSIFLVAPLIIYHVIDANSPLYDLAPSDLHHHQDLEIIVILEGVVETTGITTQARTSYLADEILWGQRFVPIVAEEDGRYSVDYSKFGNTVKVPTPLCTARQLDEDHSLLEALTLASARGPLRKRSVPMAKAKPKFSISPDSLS
T1 sequence (Q09428 whole entry partner): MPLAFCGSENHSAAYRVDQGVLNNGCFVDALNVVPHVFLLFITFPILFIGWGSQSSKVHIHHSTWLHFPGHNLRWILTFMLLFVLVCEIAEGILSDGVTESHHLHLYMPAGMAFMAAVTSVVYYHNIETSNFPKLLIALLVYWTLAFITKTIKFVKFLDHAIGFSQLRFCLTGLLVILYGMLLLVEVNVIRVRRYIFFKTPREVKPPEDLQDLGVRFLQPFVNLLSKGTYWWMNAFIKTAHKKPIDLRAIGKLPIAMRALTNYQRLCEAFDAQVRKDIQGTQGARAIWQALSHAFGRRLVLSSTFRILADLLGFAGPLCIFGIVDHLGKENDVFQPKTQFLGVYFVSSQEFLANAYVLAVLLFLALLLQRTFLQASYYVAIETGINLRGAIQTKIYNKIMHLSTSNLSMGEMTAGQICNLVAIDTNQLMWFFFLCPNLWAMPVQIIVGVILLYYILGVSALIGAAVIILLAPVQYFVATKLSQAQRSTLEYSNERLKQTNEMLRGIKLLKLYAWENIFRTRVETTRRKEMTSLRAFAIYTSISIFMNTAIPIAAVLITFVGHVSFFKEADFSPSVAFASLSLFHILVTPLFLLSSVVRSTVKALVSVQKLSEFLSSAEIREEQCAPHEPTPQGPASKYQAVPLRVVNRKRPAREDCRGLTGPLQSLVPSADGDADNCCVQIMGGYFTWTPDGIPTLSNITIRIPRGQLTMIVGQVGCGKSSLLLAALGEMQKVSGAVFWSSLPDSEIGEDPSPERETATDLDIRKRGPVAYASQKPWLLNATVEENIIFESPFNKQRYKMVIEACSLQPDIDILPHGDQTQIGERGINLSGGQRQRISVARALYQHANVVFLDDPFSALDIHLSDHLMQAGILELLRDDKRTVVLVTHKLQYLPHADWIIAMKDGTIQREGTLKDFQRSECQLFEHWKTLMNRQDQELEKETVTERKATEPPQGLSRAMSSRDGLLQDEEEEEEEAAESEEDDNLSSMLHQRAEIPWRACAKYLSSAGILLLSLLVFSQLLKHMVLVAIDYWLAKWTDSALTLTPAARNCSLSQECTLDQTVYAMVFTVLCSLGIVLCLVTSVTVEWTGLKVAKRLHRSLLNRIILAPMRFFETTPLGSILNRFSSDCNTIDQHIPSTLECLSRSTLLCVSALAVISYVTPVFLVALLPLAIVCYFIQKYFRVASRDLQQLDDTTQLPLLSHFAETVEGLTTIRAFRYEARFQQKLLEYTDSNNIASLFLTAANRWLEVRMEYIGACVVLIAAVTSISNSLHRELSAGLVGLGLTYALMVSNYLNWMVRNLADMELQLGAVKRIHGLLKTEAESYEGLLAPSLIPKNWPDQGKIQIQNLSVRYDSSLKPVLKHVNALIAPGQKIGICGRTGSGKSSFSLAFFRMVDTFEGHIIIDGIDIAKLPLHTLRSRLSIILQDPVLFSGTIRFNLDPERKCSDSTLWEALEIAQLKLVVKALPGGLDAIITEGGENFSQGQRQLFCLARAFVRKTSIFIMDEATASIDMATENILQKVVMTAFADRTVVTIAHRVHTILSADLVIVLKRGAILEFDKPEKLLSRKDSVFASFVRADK

Regarding `CCC(=O)N1c2ccc(S(=O)(=O)Nc3cccc(OC)c3)cc2CC1C` (stereo not shown) [VU625, N-(3-methoxyphenyl)-2-methyl-1-propionylindoline-5-sulfonamide], in experiment [1] (690 pmol per mosquito, hemolymph injection, alone, 24 h), the “effect on mosquito behavior or survival” value is reported as “no significant effects on mosquito behavior or survival within 24 h”. The “toxicity on co-injection with probenecid” value in experiment [1] (VU625 690 pmol + probenecid 3.4 nmol per mosquito, 24 h, vs VU625 or probenecid alone) is listed as “significantly increases the toxicity of VU625 within 24 h”. In experiment [1] (setting [7]), the “ED25 (mortality)” value is 9.96 pmol and the “ED75 (mortality)” value is listed as 502 pmol. Moreover, the “efficacy of VU625 with PBO” value in experiment [1] (preliminary experiments with PBO) was “did not improve the efficacy”. The IC50 (as a rule, the point on the concentration scale where inhibition reaches its midpoint) in experiment [2] was over 30 µM. In experiment [3], this molecule showed a radioligand displacement of 56%. For the same molecule, in experiment [4], the “activity in radioligand displacement panel” value was “against only three targets”. Also, the IC50 in experiment [5] was over 30 µM. Besides, in experiment [6], the “toxicity when applied to the cuticle” value is given as “lack of topical activity”.
